Data taken from ChEMBL document CHEMBL3044669, “Molecular modeling, structure activity relationship and immunomodulatory properties of some lupeol derivatives” (Med Chem Res, 2013).
Converted amounts (≈) assume the structure as drawn.

What was measured:
Neutrophil [1] = experiment: Immunomodulatory activity in neutrophils assessed as decrease in oxidative burst at 50 ug/mL after 30 min by luminol-enhanced chemiluminescence assay relative to control; assay type: functional; set-up: scale not given: the % may be the effect or the level left
PBL [2] = experiment: Antiproliferative activity against PHA-induced Homo sapiens (human) peripheral blood lymphocytes assessed as inhibition of [3H]-thymidine incorporation at 50 ug/ml after 72 hr by beta-scintillation counting analysis relative to control; assay type: functional
PBL [3] = experiment: Antiproliferative activity against PHA-induced Homo sapiens (human) peripheral blood lymphocytes assessed as inhibition of [3H]-thymidine incorporation after 72 hr by beta-scintillation counting analysis; assay type: functional, cell-based
Neutrophil [4] = experiment: Immunomodulatory activity in neutrophils assessed as decrease in oxidative burst after 30 min by luminol-enhanced chemiluminescence assay; assay type: functional, cell-based; conditions: for IC50: 0.5 h
PBL [5] = experiment: Stimulation of PHA-induced Homo sapiens (human) peripheral blood lymphocytes proliferation assessed as increase in [3H]-thymidine incorporation at 50 ug/ml after 72 hr by beta-scintillation counting analysis relative to control; assay type: functional

Row | SMILES | Activity (Neutrophil [1]) | inhibition at 50 µg/mL (PBL [2]) | IC50 (PBL [3]) | inhibition (PBL [3]) | Activity (Neutrophil [4]) | IC50 (Neutrophil [4]) | Activity (PBL [5])
1 | C=C(C)[C@@H]1CC[C@]2(C)CC[C@]3(C)[C@H](CC[C@@H]4[C@@]5(C)CC[C@H](OC(C)=O)C(C)(C)[C@@H]5CC[C@]43C)[C@@H]12 [LUPENYL ACETATE] | 41.12% | 38.9% |  |  |  |  | 
2 | C=C(C)[C@@H]1CC[C@]2(C)CC[C@]3(C)[C@H](CC[C@@H]4[C@@]5(C)CC[C@H](O)C(C)(C)[C@@H]5CC[C@]43C)[C@@H]12 [LUPEOL] |  |  | 13.2 µg/mL (≈ 30.8 µM) | Dose-dependent effect | Dose-dependent effect | 11.3 µg/mL | 
3 | C=C(C)[C@@H]1CC[C@]2(C(=O)O)CC[C@]3(C)[C@H](CC[C@@H]4[C@@]5(C)CC[C@H](O)C(C)(C)[C@@H]5CC[C@]43C)[C@@H]12 [BETULINIC ACID] |  |  |  |  | Dose-dependent effect | 11.1 µg/mL | 38.2%
4 | C=C(C)[C@@H]1CC[C@]2(C(=O)OCC)CC[C@]3(C)[C@H](CC[C@@H]4[C@@]5(C)CC[C@H](O)C(C)(C)[C@@H]5CC[C@]43C)[C@@H]12 [ETHYL BETULINATE] |  |  | 12.9 µg/mL (≈ 26.6 µM) |  |  | 3.85 µg/mL | 
